The results in this text go back to patent publication US20060019907A1, “Guggulsterone: an inhibitor of nuclear factor - kappaB and IkappaBalpha kinase activation and uses thereof” (Research Development Foundation, priority 2004, published 2006).

Data set [1] relates to NF-κB. Briefly: NF-κB activation by EMSA in H1299 cells. The class given is cell-based, human. As to the method:
(§1) NF-κB Activation: To determine NF-κB activation, EMSA was carried out as previously described (Chaturvedi et al., 2000). Briefly, nuclear extracts prepared from cells (2×10^6/ml) treated with TNF were incubated with ^32P-end-labeled 45-mer double-stranded NF-κB oligonucleotide (8 μg of protein with […] of DNA) from the human immunodeficiency virus long terminal repeat, 5′-[…] GGCGTGG-3′ (SEQ ID NO:1) (boldface indicates NF-κB binding sites), for 15 min at 37° C. The DNA-protein complex formed was separated from free oligonucleotide on 6.6% native polyacrylamide gels. A double-stranded mutated oligonucleotide, 5′-[…]-3′ (SEQ ID NO:2), was used to examine the specificity of binding of NF-κB to the DNA. The specificity of binding was also examined by competition with the unlabeled oligonucleotide. For supershift assays, nuclear extracts prepared from TNF-treated cells were incubated with antibodies against either the p50 or the p65 subunit of NF-κB for 30 min at room temperature before the complex was analyzed by EMSA. The dried gels were visualized, and radioactive bands were quantitated using a PHOSPHORIMAGER™ (Molecular Dynamics, Sunnyvale, Calif.) using IMAGEQUANT™ software.
(In general: Mobility shift assays separate free from complexed probe on a gel.)

Data set [2] relates to NF-κB. Briefly: Constitutively active NF-κB by EMSA in U266 and MDA 1986 tumor cells. The format is cell-based, human. As to conditions: 50 μM, 4 hours. As to the method: as §1
The subject of data set [3] is NF-κB. Briefly: RANKL-induced NF-κB activation by EMSA in RAW 264.7 cells. The class given is cell-based, mouse.
Data set [4] has as its system caspase 8, cytochrome c, caspase 3, PARP. Briefly: Caspase activation, cytochrome c release and PARP cleavage, Western blot. The settings on record: U937; 10 μM. The class given is cell-based, human. As to the method: Western blot analysis. Thirty to fifty micrograms of cytoplasmic, nuclear or whole cell protein was resolved on 10% SDS-PAGE gel, transferred to a nitrocellulose membrane, blocked with 5% non-fat milk, and probed with specific antibodies as per manufacturer's recommended protocol. The blots were washed, exposed to HRP-conjugated secondary antibodies for 1 h, and detected by ECL reagent (Amersham Pharmacia Biotechnology, Piscataway, N.J.). The bands were quantitated using a Personal Densitometer Scan v1.30 using Imagequant software version 3.3 (Molecular Dynamics).
Measurement of cytochrome c release. To determine the effect of guggulsterone on cytochrome c release, cells were treated with guggulsterone as indicated and then the cytosolic extracts were prepared as described (Yang, 1997). Briefly, the cells were washed with PBS, resuspended in the buffer containing 0.25 M sucrose, 30 mM Tris-HCl (pH 7.9), 1 mM EDTA, 1 mM PMSF, 2 mM sodium orthovanadate, 10 mM NaF, 2 μg/ml leupeptin, and 2 μg/ml aprotinin and then homogenized gently with a glass Dounce homogenizer for 20 strokes. The homogenates were centrifuged at 2000 rpm for 10 min to remove nuclei, and the supernatants were centrifuged at 14,000 rpm for 30 min to remove mitochondria and other insoluble fragments. The supernatants were again centrifuged as above to ensure complete removal of mitochondria. Protein ([…]) was subjected to 15% SDS-PAGE, and then Western blot analysis was performed using anti-cytochrome c antibody.
PARP cleavage assay. For detection of cleavage products of PARP, whole-cell extracts were prepared by subjecting guggulsterone-treated cells to lysis in lysis buffer (20 mM Tris, pH 7.4; 250 mM NaCl; 2 mM EDTA, pH 8.0; 0.1% Triton-X 100; 0.01 μg/ml aprotinin; 0.005 μg/ml leupeptin; 0.4 mM PMSF; and 4 mM NaVO4). Lysates were spun at 14000 rpm for 10 min to remove insoluble material, resolved by 10% SDS PAGE, and probed with PARP antibodies.
In general terms: In western blotting, separated proteins are transferred to a membrane and probed.

The subject of the next data set is IKK. Briefly: TNF-induced IKK activation, immune complex kinase assay. The format is cell-based, human. The settings on record: H1299. As to the method: IKK Assay: To determine the effect of guggulsterone on TNF-induced IKK activation, IKK was analyzed by a method essentially as described previously (Shishodia et al., 2003). Briefly, IKK complex was precipitated from whole-cell extracts with antibody to IKKα and IKKβ, assayed in kinase assay using GST-IκBα (1-54) as a substrate, and resolved on 10% polyacrylamide gel; the radioactive bands were visualized using a PHOSPHORIMAGER™. To determine the total amounts of IKKα and IKKβ in each sample, 30 μg of the whole-cell extract protein was resolved on a 7.5% polyacrylamide gel and analyzed by Western blot using antibody against IKKα and IKKβ.

The next data set relates to KBM-5 cells. The data set is described as follows: Cytotoxicity (MTT) assay with TNF and chemotherapeutic drugs. As to conditions: 50 μM guggulsterone, 72 hours. The format is cell-based, human. As for the experimental part:
Cytotoxicity Assay: Cytotoxicity was assayed by the modified tetrazolium salt 3-(4-5-dimethylthiozol-2-yl)2-5-diphenyl-tetrazolium bromide (MTT) assay (Bharti et al., 2003). Briefly, cells (5000 cells/well) were incubated in the presence or absence of the indicated test sample in a final volume of 0.1 ml for 72 hours at 37° C. Thereafter, 0.025 ml of MTT solution (5 mg/ml in PBS) was added to each well. After a 2 hour incubation at 37° C., 0.1 ml of the extraction buffer (20% SDS, 50% dimethylformamide) was added. After an overnight incubation at 37° C., the optical densities at 570 nm were measured using a 96-well multiscanner autoreader (Dynatech MR5000), with the extraction buffer as blank. The percent cytotoxicity was determined as follows: (1−(A570 of test sample)/(A570 of control sample)×100%.

Another data set relates to JNK. Briefly: JNK kinase assay. The format is cell-based, human. The settings on record: U937; 10 μM. As for the experimental part: JNK kinase assay. To determine the effect of guggulsterone on the kinase activity of JNK, JNK complex from whole-cell extracts was precipitated with antibody against JNK1, followed by treatment with protein A/G-Sepharose beads (Pierce, Rockford, Ill.). After 2 h of incubation, the beads were washed with lysis buffer and then assayed in kinase assay mixture containing 50 mM HEPES (pH 7.4), 20 mM MgCl2, 2 mM dithiothreitol, 20 μCi of [γ-^32P]ATP, 10 μM unlabeled ATP, and 2 μg of substrate GST-c-Jun (1-79). The immunocomplex was incubated at 30° C. for 30 min and then boiled with SDS sample buffer for 5 min. Finally, the protein was resolved on 10% SDS-PAGE, the gel was dried, and the radioactive bands were visualized using the PhosphorImager. To determine the total amount of JNK1 in each sample, whole-cell extracts were subjected to Western blot analysis using anti-JNK1 antibody.

Setting [5] is: H1299, 4 h pre-incubation, 0.1 nM TNF 30 min.

For `CC=C1C(=O)C[C@H]2[C@@H]3CCC4=CC(=O)CC[C@]4(C)[C@H]3CC[C@]12C` [guggulsterone, 4,17(20)-pregnadiene-3,16-dione], the “minimum time required for complete inhibition of NF-κB activation” value in the data set on NF-κB [1] (H1299, 50 μM guggulsterone, 0.1 nM TNF 30 min) is 4 h. Besides, in the data set with NF-κB [1] (setting [5]), the “TNF-mediated NF-κB activation, dose dependence” value is “inhibited TNF-mediated NF-κB activation in a dose-dependent manner” and the “concentration of maximum inhibition of TNF-mediated NF-κB activation” value turned out to be 50 µM. In addition, in the data set with NF-κB [1] (H1299 cells, 50 μM guggulsterone pre-incubated 4 h), the “NF-κB activation induced by TNF, IL-1β, PMA, H2O2, cigarette smoke and okadaic acid (EMSA)” value is “suppressed the NF-κB activation induced by all these agents”. In the data set with NF-κB [1] (H1299 nuclear extracts, up to 50 μM), the “NF-κB activation by guggulsterone by itself” value is “by itself did not activate NF-κB”. In the data set with NF-κB [2], the “constitutively active NF-κB in U266 and MDA 1986 cells” value was “completely inhibited this constitutively active NF-κB”. In the data set on NF-κB [3] (RAW 264.7, 10 nM RANKL), the “concentration of complete inhibition of RANKL-induced NF-κB activation” value stood at 50 µM and the “inhibition of RANKL-induced NF-κB, dose dependence” value was “increased with dose”. The “RANKL-induced NF-κB activation (EMSA)” value in the data set on NF-κB [3] (RAW 264.7, 50 μM, 10 nM RANKL) is “completely abrogated the RANKL-induced NF-κB activation”. Moreover, in the data set on NF-κB [3] (osteoclast precursor cells), the “RANKL-induced NF-κB activation (Example 1)” value is listed as “inhibits RANKL-induced NF-κB activation”. In data set [4], the “caspase 3 activation and PARP cleavage” value is “activation of caspase 3 and PARP cleavage”; the “caspase 8 activation (receptor-mediated apoptosis)” value is given as “activation of caspase 8”; the “mitochondrial cytochrome c release (non-receptor mediated apoptosis)” value is reported as “mitochondrial cytochrome c release”. For the same molecule, in the data set on IKK (50 μM, 4 h, 0.1 nM TNF), the “TNF-induced IKK activation” value is given as “completely suppressed this activation”. For the same molecule, the “expression of IKKα and IKKβ proteins” value with IKK (whole cell extracts, immunoblot) was “had no direct effect on the expression of either IKKα”. Besides, the “cytotoxic effects of TNF, paclitaxel and doxorubicin in combination with guggulsterone” value with KBM-5 cells was “enhanced the cytotoxic effects of TNF, paclitaxel and doxorubicin”. In addition, the JNK activation entry in the data set on JNK is “activation of JNK”.
